# Assays:
# Crabgrass (CG) [1] = assay: Pre-emergence herbicide test; assay type: in vivo, Digitaria sanquinalis; conditions: Digitaria sanguinalis, pre-emergence, 336 h, two weeks after treatment
# Outline: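 Crabgrass (Digitaria sanquinalis) was surface seeded in 3' plastic pots of potting soil, covered with screened soil, and watered by sub-irrigation in greenhouse trays. Pots were seeded one day before spraying in a hood with a moving belt and fixed nozzle. Plants stayed in the greenhouse on sub-irrigation, and pre-emergence control was rated visually two weeks after treatment.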
# [2] = system: Yellow foxtail grass (YF); assay: Pre-emergence herbicide test; assay type: in vivo, Setaria glauca; conditions: Setaria, 336 h, two weeks after treatment
# Outline: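 Visual rating of injury/control made two weeks after a pre-emergence spray of 8 or 4 lbs active per acre (38 gal/acre) onto pots seeded the previous day. Greenhouse watering by sub-irrigation only.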
# Johnson grass (JG) [3] = assay: Pre-emergence herbicide test; assay type: in vivo, Sorgum helepense; conditions: Sorghum halepense, 336 h, two weeks after treatment
# Outline: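 Visual injury or control rating two weeks post-treatment, after pre-emergence spray of 8 or 4 lbs active per acre (38 gal/acre) onto pots sown the previous day. Greenhouse watering by sub-irrigation only.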
# Barnyard grass (BG) [4] = assay: Pre-emergence herbicide test; assay type: in vivo; conditions: Echinochloa crus-galli, 336 h, two weeks after treatment
# Outline: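 Greenhouse pre-emergence spray test: pots seeded one day before treatment received compound at rates of 8 or 4 lb/acre (38 gal/acre). Visual injury/control scores for Echinochloa crus-galli taken at two weeks, with watering by sub-irrigation only.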
# Amaranth pigweed (PW) [5] = assay: Pre-emergence herbicide test; assay type: in vivo, Amaranthus retroflexus; conditions: 336 h, two weeks after treatment
# Outline: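 Visual injury or control ratings were made at two weeks on pre-emergence pots, sub-irrigated in the greenhouse. Seeds were sown a day before a hood spray delivering 8 lbs/acre (or 4 lbs/acre) of compound in 38 gallons per acre.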
# Turnip (TP) [6] = assay: Pre-emergence herbicide test; assay type: in vivo, Brassica sp.; conditions: Brassica rapa, pre-emergence, 336 h, two weeks after treatment
# Outline: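 In this pre-emergence greenhouse test, turnip was seeded on the surface of potting soil in 3' plastic pots, lightly covered with screened soil, and watered from below. One day later the pots were sprayed in a belt-fed spray hood. Watering continued only by sub-irrigation, and percent control was visually scored two weeks after treatment.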
# Cotton (CT) [7] = assay: Pre-emergence herbicide test; assay type: in vivo, Gossypium hirsutum var. DPL smooth leaf; conditions: Gossypium hirsutum, 336 h, two weeks after treatment
# Outline: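 Visual injury/control ratings were taken at two weeks post-spray. Pots seeded a day earlier received compound pre-emergence at 8 lbs/acre, or 4 lbs/acre, in a 38 gallon/acre spray volume, and were then held in the greenhouse, watered only from below.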
# Corn (CN) [8] = assay: Pre-emergence herbicide test; assay type: in vivo; conditions: Zea mays, 336 h, two weeks after treatment
# Outline: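 Visual injury/control ratings were made 2 weeks post-spray on corn pots seeded (4 seeds, seed-diameter depth) the day before treatment. Application was a belt-hood spray of 38 gal/acre delivering 8 lbs active per acre, with a 4 lbs/acre rate also formulated. Watering was by sub-irrigation throughout.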
# Bean (BN) [9] = assay: Pre-emergence herbicide test; assay type: in vivo, Phaseolus vulgaris var. Black Valentine; conditions: Phaseolus vulgaris, 336 h, two weeks after treatment
# Outline: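 Visual injury/control ratings were taken two weeks post-spray on sub-irrigated Phaseolus vulgaris var. Black Valentine. Pots were sown a day before treatment. Pre-emergence spray delivered 8 lbs actual compound per acre (or 4 lbs/acre) at 38 gallons per acre.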
# Crabgrass (CG) [10] = assay: Post-emergence herbicide test; assay type: in vivo, Digitaria sanquinalis; conditions: Digitaria sanguinalis, post-emergence, 336 h, two weeks after treatment
# Outline: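 Crabgrass (Digitaria sanquinalis) was surface seeded individually in 3' plastic pots of potting soil, covered with screened soil, and watered by sub-irrigation in greenhouse trays. Planting was staggered so seedlings reached the target stage together. Post-emergence sprays were applied in a hood with a removable belt and fixed nozzle, and control was visually rated two weeks after treatment.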
# [11] = system: Yellow foxtail grass (YF); assay: Post-emergence herbicide test; assay type: in vivo, Setaria glauca; conditions: Setaria, 336 h, two weeks after treatment
# Outline: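 Visual rating of injury/control made 2 weeks post-spray. Seedlings at a uniform growth stage in soil-filled pots received a hood spray of 8 lbs/acre active compound, 38 gallons/acre volume, with a 4 lbs/acre rate also formulated. Watering was by sub-irrigation only.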
# Johnson grass (JG) [12] = assay: Post-emergence herbicide test; assay type: in vivo, Sorgum helepense; conditions: Sorghum halepense, 336 h, two weeks after treatment
# Outline: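 Visual injury or control scores taken 2 weeks after a post-emergence spray of pot-grown plants. Application was 8 lbs/acre (or 4 lbs/acre) in 38 gal/acre. Plants were held in the greenhouse with sub-irrigation only.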
# Barnyard grass (BG) [13] = assay: Post-emergence herbicide test; assay type: in vivo; conditions: Echinochloa crus-galli, 336 h, two weeks after treatment
# Outline: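 Greenhouse pot-grown barnyard grass seedlings sprayed post-emergence at 8 lbs active compound per acre (some at 4 lbs/acre) in 38 gallons per acre, then sub-irrigated. Injury or control rated visually two weeks after treatment.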
# Amaranth pigweed (PW) [14] = assay: Post-emergence herbicide test; assay type: in vivo, Amaranthus retroflexus; conditions: 336 h, two weeks after treatment
# Outline: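 Visual injury or control ratings were made two weeks after spraying, with greenhouse watering by sub-irrigation only. Treatment was post-emergence, when pigweed seedlings had 1 or 2 true leaves, at 8 lbs active compound per acre (4 lbs/acre formulations also made) in a 38 gallons-per-acre spray volume.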
# Turnip (TP) [15] = assay: Post-emergence herbicide test; assay type: in vivo, Brassica sp.; conditions: Brassica rapa, post-emergence, 336 h, two weeks after treatment
# Outline: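 A greenhouse post-emergence herbicide test on turnip. Seeds were sown on the surface of potting soil in 3' plastic pots, lightly covered with screened soil and watered from below. Planting was timed so seedlings had 1 or 2 true leaves above the cotyledons at spraying, done in a hood with a fixed nozzle. Control or injury was scored by eye after two weeks.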
# Cotton (CT) [16] = assay: Post-emergence herbicide test; assay type: in vivo, Gossypium hirsutum var. DPL smooth leaf; conditions: Gossypium hirsutum, post-emergence, 336 h, two weeks after treatment
# Outline: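 This greenhouse post-emergence test measured how well spray treatments controlled cotton. Seedlings of Gossypium hirsutum var. DPL smooth leaf, with expanded cotyledons and a first true leaf 1' in length, were sprayed with 50 ml formulations in a belt-fed spray hood. They were then returned to the greenhouse and watered only by sub-irrigation. Injury was scored visually as % control after two weeks.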
# Corn (CN) [17] = assay: Post-emergence herbicide test; assay type: in vivo; conditions: Zea mays, 336 h, two weeks after treatment
# Outline: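 Greenhouse seedlings grown in potting soil and sprayed post-emergence at 8 lbs compound/acre (formulations also made for 4 lbs/acre) in 38 gallons/acre spray volume. Watering by sub-irrigation only. Injury or control rated visually two weeks after treatment.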
# Bean (BN) [18] = assay: Post-emergence herbicide test; assay type: in vivo, Phaseolus vulgaris var. Black Valentine; conditions: Phaseolus vulgaris, post-emergence, 336 h, two weeks after treatment
# Outline: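 Bean seedlings (Phaseolus vulgaris var. Black Valentine) were grown in potting soil in 3' pots until the primary leaves expanded. They were then sprayed under a hood with a removable belt and fixed nozzle, using 50 ml formulations. Afterward they were returned to the greenhouse and watered only by sub-irrigation. Percent control was judged visually two weeks after treatment.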
# [19] = system: variety of crops and weed species; assay: Pre- and post-emergence herbicide tests, overall assessment of Tables III-VI; assay type: in vivo; conditions: data of Tables III-VI
# Outline: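 Crops and weeds grown in potting soil were sprayed at 8 lbs. compound per acre in 38 gallons per acre, pre-emergence pots seeded one day before treatment. Injury or control was visually rated two weeks after treatment.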
structure (smiles),measurement,setting,value
CCN(C(=O)NC)c1nnc(C(F)(F)F)s1 [Example 37],pest or weed control,Crabgrass (CG) [1]; 2 lb/acre,90%
same,pest or weed control at 4483.4 g/ha,Crabgrass (CG) [1]; 4 lb/acre,90%
same,pest or weed control at 8966.8 g/ha,Crabgrass (CG) [1]; 8 lb/acre,90%
same,pest or weed control at 2241.7 g/ha,[2]; 2 lb/acre,70%
same,pest or weed control at 4483.4 g/ha,[2]; 4 lb/acre,80%
same,pest or weed control at 8966.8 g/ha,[2]; 8 lb/acre,90%
same,pest or weed control at 2241.7 g/ha,Johnson grass (JG) [3]; 2 lb/acre,60%
same,pest or weed control at 4483.4 g/ha,Johnson grass (JG) [3]; 4 lb/acre,70%
same,pest or weed control at 8966.8 g/ha,Johnson grass (JG) [3]; 8 lb/acre,60%
same,pest or weed control at 2241.7 g/ha,Barnyard grass (BG) [4]; 2 lb/acre,50%
same,pest or weed control at 4483.4 g/ha,Barnyard grass (BG) [4]; 4 lb/acre,60%
same,pest or weed control at 8966.8 g/ha,Barnyard grass (BG) [4]; 8 lb/acre,90%
same,pest or weed control at 2241.7 g/ha,Amaranth pigweed (PW) [5]; 2 lb/acre,90%
same,pest or weed control at 4483.4 g/ha,Amaranth pigweed (PW) [5]; 4 lb/acre,100%
same,pest or weed control at 8966.8 g/ha,Amaranth pigweed (PW) [5]; 8 lb/acre,100%
same,pest or weed control at 2241.7 g/ha,Turnip (TP) [6]; 2 lb/acre,100%
same,pest or weed control at 4483.4 g/ha,Turnip (TP) [6]; 4 lb/acre,100%
same,pest or weed control at 8966.8 g/ha,Turnip (TP) [6]; 8 lb/acre,100%
same,pest or weed control at 2241.7 g/ha,Cotton (CT) [7]; 2 lb/acre,40%
same,pest or weed control at 4483.4 g/ha,Cotton (CT) [7]; 4 lb/acre,40%
same,pest or weed control at 8966.8 g/ha,Cotton (CT) [7]; 8 lb/acre,60%
same,pest or weed control at 2241.7 g/ha,Corn (CN) [8]; 2 lb/acre,30%
same,pest or weed control at 4483.4 g/ha,Corn (CN) [8]; 4 lb/acre,40%
same,pest or weed control at 8966.8 g/ha,Corn (CN) [8]; 8 lb/acre,50%
same,pest or weed control at 2241.7 g/ha,Bean (BN) [9]; 2 lb/acre,80%
same,pest or weed control at 4483.4 g/ha,Bean (BN) [9]; 4 lb/acre,70%
same,pest or weed control at 8966.8 g/ha,Bean (BN) [9]; 8 lb/acre,90%
same,pest or weed control,Crabgrass (CG) [10]; 2 lb/acre,30%
same,pest or weed control at 4483.4 g/ha,Crabgrass (CG) [10]; 4 lb/acre,40%
same,pest or weed control at 8966.8 g/ha,Crabgrass (CG) [10]; 8 lb/acre,90%
same,pest or weed control,[11]; 2 lb/acre,30%
same,pest or weed control at 4483.4 g/ha,[11]; 4 lb/acre,50%
same,pest or weed control at 8966.8 g/ha,[11]; 8 lb/acre,90%
same,pest or weed control,Johnson grass (JG) [12]; 2 lb/acre,20%
same,pest or weed control at 4483.4 g/ha,Johnson grass (JG) [12]; 4 lb/acre,30%
same,pest or weed control at 8966.8 g/ha,Johnson grass (JG) [12]; 8 lb/acre,70%
same,pest or weed control at 2241.7 g/ha,Barnyard grass (BG) [13]; 2 lb/acre,20%
same,pest or weed control at 4483.4 g/ha,Barnyard grass (BG) [13]; 4 lb/acre,30%
same,pest or weed control at 8966.8 g/ha,Barnyard grass (BG) [13]; 8 lb/acre,90%
same,pest or weed control at 2241.7 g/ha,Amaranth pigweed (PW) [14]; 2 lb/acre,90%
same,pest or weed control at 4483.4 g/ha,Amaranth pigweed (PW) [14]; 4 lb/acre,100%
same,pest or weed control at 8966.8 g/ha,Amaranth pigweed (PW) [14]; 8 lb/acre,100%
same,pest or weed control at 2241.7 g/ha,Turnip (TP) [15]; 2 lb/acre,90%
same,pest or weed control at 4483.4 g/ha,Turnip (TP) [15]; 4 lb/acre,90%
same,pest or weed control at 8966.8 g/ha,Turnip (TP) [15]; 8 lb/acre,100%
same,pest or weed control at 2241.7 g/ha,Cotton (CT) [16]; 2 lb/acre,100%
same,pest or weed control at 4483.4 g/ha,Cotton (CT) [16]; 4 lb/acre,100%
same,pest or weed control at 8966.8 g/ha,Cotton (CT) [16]; 8 lb/acre,100%
same,pest or weed control,Corn (CN) [17]; 2 lb/acre,20%
same,pest or weed control at 4483.4 g/ha,Corn (CN) [17]; 4 lb/acre,80%
same,pest or weed control at 8966.8 g/ha,Corn (CN) [17]; 8 lb/acre,80%
same,pest or weed control at 2241.7 g/ha,Bean (BN) [18]; 2 lb/acre,90%
same,pest or weed control at 4483.4 g/ha,Bean (BN) [18]; 4 lb/acre,100%
same,pest or weed control at 8966.8 g/ha,Bean (BN) [18]; 8 lb/acre,100%
same,"herbicidal effectiveness / selectivity, in words",[19],extremely effective when applied to a variety of crops and weed species

# — patent US4175081A, “5-Substituted thiadiazole ureas” (priority 1977, dated 1979)
